Data published in the CheMixHub ionic liquid set.
± gives the uncertainty stated by the source.

Experiment: xn = mol fraction of the nth substance listed

CCCC[n+]1ccn(C)c1.F[P-](F)(F)(F)(F)F + CN(C)C=O
101 kPa
Details | viscosity [mPa·s]
293.15 K, x2 = 0.3999 | 39.7 ± 1.1
303.15 K, x2 = 0 | 187.6 ± 4.5
303.15 K, x2 = 0.7963 | 2.42 ± 0.03
303.15 K, x2 = 0.9399 | 1.21 ± 0.02
308.15 K, x2 = 0.3002 | 30.91 ± 0.86
308.15 K, x2 = 0.6 | 7.89 ± 0.22
308.15 K, x2 = 0.7 | 4.71 ± 0.13
313.15 K, x2 = 0.8543 | 1.7 ± 0.02
318.15 K, x2 = 0 | 95.8 ± 2.8
318.15 K, x2 = 0.2 | 31.22 ± 0.86
318.15 K, x2 = 0.6 | 6.16 ± 0.17
323.15 K, x2 = 0.4909 | 8.38 ± 0.19
323.15 K, x2 = 0.6262 | 4.46 ± 0.07

CCCC[n+]1ccn(C)c1.F[P-](F)(F)(F)(F)F + Cc1ccccc1
101 kPa
Details | viscosity [mPa·s]
298.15 K, x2 = 0.05 | 172.6 ± 8.8
300.65 K, x2 = 0.2 | 74.9 ± 3.8
300.65 K, x2 = 0.4 | 31.2 ± 1.5
303.15 K, x2 = 0.1 | 73.3 ± 3.4
303.15 K, x2 = 0.3 | 39.5 ± 1.7
305.65 K, x2 = 0.3 | 32.5 ± 1.4
308.15 K, x2 = 0.3 | 27.6 ± 1.2
310.65 K, x2 = 0.1 | 39.8 ± 1.7
313.15 K, x2 = 0.4 | 14.12 ± 0.58
318.15 K, x2 = 0.3 | 17.56 ± 0.72
320.65 K, x2 = 0.3 | 16.21 ± 0.67
320.65 K, x2 = 0.4 | 11.32 ± 0.46
328.15 K, x2 = 0.05 | 27.7 ± 1.1
330.65 K, x2 = 0.05 | 26 ± 1.1
335.65 K, x2 = 0.4 | 8.8 ± 0.36
338.15 K, x2 = 0.05 | 22.02 ± 0.9

CC[n+]1ccn(C)c1.O=S(=O)([O-])O + Cc1ncc(C[n+]2csc(CCO)c2C)c(N)n1.Cl.[Cl-] + O
viscosity [mPa·s], 100 kPa
Details | 293.15 K | 298.15 K | 303.15 K | 308.15 K | 313.15 K | 318.15 K
x2 = 0, x1 = 0.0009002 | 1.05 ± 0.1 | 0.94 ± 0.1 | 0.84 ± 0.1 | 0.76 ± 0.1 | 0.69 ± 0.1 | 0.65 ± 0.1
x2 = 0, x1 = 0.001799 | 1.07 ± 0.1 | 0.95 ± 0.1 | 0.85 ± 0.1 | 0.77 ± 0.1 | 0.7 ± 0.1 | 0.64 ± 0.1
x2 = 0, x1 = 0.002696 | 1.08 ± 0.1 | 0.96 ± 0.1 | 0.86 ± 0.1 | 0.78 ± 0.1 | 0.71 ± 0.1 | 0.64 ± 0.1
x2 = 0.0002717, x1 = 0.0008999 | 1.06 ± 0.1 | 0.95 ± 0.1 | 0.85 ± 0.1 | 0.77 ± 0.1 | 0.7 ± 0.1 | 0.66 ± 0.1
x2 = 0.0002739, x1 = 0.001798 | 1.08 ± 0.1 | 0.96 ± 0.1 | 0.86 ± 0.1 | 0.78 ± 0.1 | 0.71 ± 0.1 | 0.65 ± 0.1
x2 = 0.0002783, x1 = 0.002695 | 1.09 ± 0.1 | 0.97 ± 0.1 | 0.87 ± 0.1 | 0.79 ± 0.1 | 0.72 ± 0.1 | 0.65 ± 0.1
x2 = 0.0005451, x1 = 0.0008997 | 1.07 ± 0.1 | 0.96 ± 0.1 | 0.85 ± 0.1 | 0.78 ± 0.1 | 0.71 ± 0.1 | 0.67 ± 0.1
x2 = 0.0005496, x1 = 0.001798 | 1.09 ± 0.1 | 0.97 ± 0.1 | 0.87 ± 0.1 | 0.79 ± 0.1 | 0.72 ± 0.1 | 0.66 ± 0.1
x2 = 0.0005575, x1 = 0.002694 | 1.1 ± 0.1 | 0.98 ± 0.1 | 0.88 ± 0.1 | 0.8 ± 0.1 | 0.73 ± 0.1 | 0.66 ± 0.1
x2 = 0.0008249, x1 = 0.001797 | 1.1 ± 0.1 | 0.98 ± 0.1 | 0.88 ± 0.1 | 0.8 ± 0.1 | 0.73 ± 0.1 | 0.67 ± 0.1
x2 = 0.0008327, x1 = 0.002693 | 1.11 ± 0.1 | 0.99 ± 0.1 | 0.89 ± 0.1 | 0.81 ± 0.1 | 0.73 ± 0.1 | 0.67 ± 0.1
x2 = 0.0008356, x1 = 0.0008994 | 1.08 ± 0.1 | 0.97 ± 0.1 | 0.86 ± 0.1 | 0.79 ± 0.1 | 0.72 ± 0.1 | 0.68 ± 0.1
x2 = 0.00109, x1 = 0.0008992 | 1.09 ± 0.1 | 0.98 ± 0.1 | 0.87 ± 0.1 | 0.8 ± 0.1 | 0.73 ± 0.1 | 0.68 ± 0.1
x2 = 0.001102, x1 = 0.001797 | 1.11 ± 0.1 | 0.98 ± 0.1 | 0.89 ± 0.1 | 0.81 ± 0.1 | 0.74 ± 0.1 | 0.68 ± 0.1
x2 = 0.001112, x1 = 0.002693 | 1.12 ± 0.1 | 1 ± 0.1 | 0.9 ± 0.1 | 0.81 ± 0.1 | 0.74 ± 0.1 | 0.68 ± 0.1
x2 = 0.001362, x1 = 0.000899 | 1.1 ± 0.1 | 0.99 ± 0.1 | 0.88 ± 0.1 | 0.8 ± 0.1 | 0.74 ± 0.1 | 0.69 ± 0.1
x2 = 0.001376, x1 = 0.001796 | 1.11 ± 0.1 | 0.99 ± 0.1 | 0.9 ± 0.1 | 0.82 ± 0.1 | 0.75 ± 0.1 | 0.69 ± 0.1
x2 = 0.001389, x1 = 0.002692 | 1.13 ± 0.1 | 1.01 ± 0.1 | 0.91 ± 0.1 | 0.82 ± 0.1 | 0.75 ± 0.1 | 0.69 ± 0.1
x2 = 0.001634, x1 = 0.0008987 | 1.1 ± 0.1 | 1 ± 0.1 | 0.89 ± 0.11 | 0.81 ± 0.1 | 0.75 ± 0.1 | 0.7 ± 0.11
x2 = 0.001651, x1 = 0.001796 | 1.12 ± 0.1 | 1 ± 0.1 | 0.91 ± 0.1 | 0.83 ± 0.1 | 0.76 ± 0.1 | 0.7 ± 0.1
x2 = 0.001665, x1 = 0.002691 | 1.14 ± 0.1 | 1.02 ± 0.1 | 0.92 ± 0.1 | 0.83 ± 0.1 | 0.76 ± 0.1 | 0.7 ± 0.1
x2 = 0.001907, x1 = 0.0008985 | 1.11 ± 0.1 | 1.01 ± 0.1 | 0.9 ± 0.1 | 0.82 ± 0.1 | 0.76 ± 0.1 | 0.71 ± 0.1
x2 = 0.001926, x1 = 0.001795 | 1.13 ± 0.1 | 1.01 ± 0.1 | 0.92 ± 0.1 | 0.84 ± 0.1 | 0.77 ± 0.1 | 0.71 ± 0.1
x2 = 0.001943, x1 = 0.00269 | 1.15 ± 0.1 | 1.03 ± 0.1 | 0.93 ± 0.1 | 0.84 ± 0.1 | 0.77 ± 0.1 | 0.71 ± 0.1
